# According to ChEMBL document CHEMBL3286216, “Synthesis and biological evaluation of CHX-DAPYs as HIV-1 non-nucleoside reverse transcriptase inhibitors” (Bioorg Med Chem, 2014):
# Tests used:
# [1] = Cytotoxicity against human MT4 cells by MTT assay; format: cell-based
# [2] = Selectivity index, ratio CC50 for human MT4 cells to EC50 for HIV 1 3B
# [3] = tested on: Human immunodeficiency virus 2; assay: Antiviral activity against HIV2 ROD infected in human MT4 cells assessed as inhibition of virus-induced cytopathicity measured 5 days post viral infection by MTT assay; format: functional, organism-based; conditions: Human immunodeficiency virus 2, ISOLATE ROD, MT4, 120 h
# [4] = tested on: Human immunodeficiency virus 1; assay: Antiviral activity against HIV1 3B infected in human MT4 cells assessed as inhibition of virus-induced cytopathicity measured 5 days post viral infection by MTT assay; format: functional, organism-based; conditions: Human immunodeficiency virus 1, 3B, MT4, 120 h
# [5] = tested on: Human immunodeficiency virus 1; assay: Antiviral activity against HIV1 RES056 harboring RT K103N,Y181C double mutant infected in human MT4 cells assessed as inhibition of virus-induced cytopathicity measured 5 days post viral infection by MTT assay; format: functional, organism-based; conditions: Human immunodeficiency virus 1, RES056, MT4, 120 h
Structure (SMILES),CC50 [1] [µM],selectivity ratio ([2]; MT4 cells),EC50 [3] [µM],EC50 [4] [µM],EC50 [5] [µM],selectivity ratio ([2]; mt4)
N#Cc1ccc(Nc2nccc(C(Cl)c3ccccc3)n2)cc1 (stereo not given),37.8,2340,> 37.8,0.016,> 37.8,–
Cc1ccc(C(Cl)c2ccnc(Nc3ccc(C#N)cc3)n2)cc1 (stereo not given),49.7,713,> 49.7,0.069,> 49.7,–
COc1ccc(C(Cl)c2ccnc(Nc3ccc(C#N)cc3)n2)cc1 (stereo not given),≥ 33.6,–,> 33.6,0.219,> 33.6,–
CC(C)(C)c1ccc(C(Cl)c2ccnc(Nc3ccc(C#N)cc3)n2)cc1 (stereo not given),32.9,193,> 32.9,0.17,> 32.9,–
N#Cc1ccc(Nc2nccc(C(Cl)c3cccc(F)c3)n2)cc1 (stereo not given),36.8,27,> 36.8,1.36,> 36.8,–
N#Cc1ccc(Nc2nccc(C(Cl)c3cccc(Cl)c3)n2)cc1 (stereo not given),24.3,5160,> 24.3,0.005,> 24.3,–
N#Cc1ccc(Nc2nccc(C(Cl)c3cccc(Br)c3)n2)cc1 (stereo not given),30.4,3110,> 30.4,0.009,8.2,–
N#Cc1ccc(Nc2nccc(C(Cl)c3ccc(F)cc3)n2)cc1 (stereo not given),35.4,19,> 35.4,1.83,> 35.4,–
N#Cc1ccc(Nc2nccc(C(Cl)c3ccc(Cl)cc3)n2)cc1 (stereo not given),36.1,545,> 36.1,0.068,> 36.1,–
N#Cc1ccc(Nc2nccc(C(Cl)c3ccc(Br)cc3)n2)cc1 (stereo not given),32.5,875,> 32.5,0.038,> 32.5,–
N#Cc1ccc(Nc2nccc(C(Cl)c3cccc4ccccc34)n2)cc1 (stereo not given),11.3,56,> 11.3,0.202,> 11.3,–
Cc1cc(C(Cl)c2ccc(C(C)(C)C)cc2)nc(Nc2ccc(C#N)cc2)n1 (stereo not given),30.3,173,> 30.3,0.174,> 30.3,–
Cc1cc(C(Cl)c2ccc(F)cc2)nc(Nc2ccc(C#N)cc2)n1 (stereo not given),31.1,5,> 31.1,5.84,> 31.1,–
Cc1cc(C(Cl)c2ccc(Br)cc2)nc(Nc2ccc(C#N)cc2)n1 (stereo not given),31.9,75,> 31.9,0.435,> 31.9,–
Cc1cnc(Nc2ccc(C#N)cc2)nc1C(Cl)c1ccc(C(C)(C)C)cc1 (stereo not given),28.7,16,> 28.7,1.79,> 28.7,–
Cc1cnc(Nc2ccc(C#N)cc2)nc1C(Cl)c1ccc(F)cc1 (stereo not given),30.8,4,> 30.8,7.88,> 30.8,–
Cc1cnc(Nc2ccc(C#N)cc2)nc1C(Cl)c1ccc(Br)cc1 (stereo not given),10.3,95,> 10.3,0.109,> 10.3,–
N#Cc1ccc(Nc2nccc(C(Br)c3ccccc3)n2)cc1 (stereo not given),69,348,> 69,0.2,> 69,–
Cc1ccc(C(Br)c2ccnc(Nc3ccc(C#N)cc3)n2)cc1 (stereo not given),31.5,672,> 31.5,0.047,> 31.5,–
CC(C)Nc1cccnc1N1CCN(C(=O)c2cc3cc(NS(C)(=O)=O)ccc3[nH]2)CC1 [DELAVIRDINE],> 43.8,> 511,–,0.085,> 43.8,–
O=C1Nc2ccc(Cl)cc2[C@@](C#CC2CC2)(C(F)(F)F)O1 [EFAVIRENZ],> 6.3,–,–,–,0.27,> 1140
Cc1cc(C#N)cc(C)c1Oc1nc(Nc2ccc(C#N)cc2)nc(N)c1Br [ETRAVIRINE],14.2,–,> 14.2,–,0.0147,7380
Nc1ccn([C@@H]2CS[C@H](CO)O2)c(=O)n1 [LAMIVUDINE],> 87.2,–,7.2,2.44,–,> 36
Cc1ccnc2c1NC(=O)c1cccnc1N2C1CC1 [NEVIRAPINE],–,> 163,–,–,> 15,–
Cc1cn([C@H]2C[C@H](N=[N+]=[N-])[C@@H](CO)O2)c(=O)[nH]c1=O [ZIDOVUDINE],> 93.5,–,0.005,–,0.007,> 17000
